Laboratory results as given in ChEMBL document CHEMBL2203171, “The use of small molecule probes to study spatially separated stimulus-induced signaling pathways” (Bioorg Med Chem Lett, 2012).
Active and inactive are the calls of the source.

Assays:
Assay type in all cases: cell-based
[1] = molecular target: T1, Inhibitor of nuclear factor kappa-B kinase subunit beta (Mus musculus) (UniProt O88351); test: Inhibition of IKKbeta in C57BL/6 mouse BMDM cells assessed as inhibition of TNFalpha-induced IkappaBalpha degradation at 50 uM up to 90 mins by Western blot analysis
T1 sequence (whole entry): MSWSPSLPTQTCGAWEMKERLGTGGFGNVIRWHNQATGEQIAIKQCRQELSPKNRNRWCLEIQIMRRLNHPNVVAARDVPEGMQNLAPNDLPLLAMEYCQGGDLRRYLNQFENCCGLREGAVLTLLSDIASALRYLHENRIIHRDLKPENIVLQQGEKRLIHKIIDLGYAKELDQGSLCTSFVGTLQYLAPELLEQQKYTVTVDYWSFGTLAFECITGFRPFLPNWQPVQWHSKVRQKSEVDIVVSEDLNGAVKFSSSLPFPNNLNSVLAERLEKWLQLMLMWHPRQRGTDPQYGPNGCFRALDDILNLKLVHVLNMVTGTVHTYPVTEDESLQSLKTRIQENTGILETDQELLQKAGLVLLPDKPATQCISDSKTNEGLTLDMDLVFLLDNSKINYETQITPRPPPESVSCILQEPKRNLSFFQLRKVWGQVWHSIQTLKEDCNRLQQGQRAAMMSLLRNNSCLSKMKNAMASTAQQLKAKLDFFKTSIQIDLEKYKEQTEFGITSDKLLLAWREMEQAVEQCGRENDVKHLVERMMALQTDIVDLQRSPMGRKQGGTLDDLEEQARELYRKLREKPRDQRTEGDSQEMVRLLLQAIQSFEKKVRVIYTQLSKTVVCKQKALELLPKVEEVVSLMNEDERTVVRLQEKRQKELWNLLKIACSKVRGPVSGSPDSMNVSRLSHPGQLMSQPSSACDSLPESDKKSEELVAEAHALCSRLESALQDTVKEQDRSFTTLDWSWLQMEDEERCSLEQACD

[2] = molecular target: T1, Inhibitor of nuclear factor kappa-B kinase subunit beta (Mus musculus); test: Inhibition of IKKbeta in C57BL/6 mouse BMDM cells assessed as inhibition of TNFalpha-induced IkappaBalpha phosphorylation at 50 uM up to 90 mins by Western blot analysis
[3] = molecular target: T2, MAP kinase p38 (Mus musculus) (UniProt P47811+O08911+Q9WUI1+Q9Z1B7); test: Inhibition of MAPK p38 in C57BL/6 mouse BMDM cells assessed as inhibition of TNFalpha-induced phosphorylation at 50 uM up to 90 mins by Western blot analysis
[4] = molecular target: T1, Inhibitor of nuclear factor kappa-B kinase subunit beta (Mus musculus); test: Inhibition of IKKbeta in C57BL/6 mouse BMDM cells assessed as inhibition of LPS-induced IkappaBalpha degradation at 50 uM up to 90 mins by Western blot analysis
[5] = molecular target: T1, Inhibitor of nuclear factor kappa-B kinase subunit beta (Mus musculus); test: Inhibition of IKKbeta in C57BL/6 mouse BMDM cells assessed as inhibition of LPS-induced IkappaBalpha phosphorylation at 50 uM up to 90 mins by Western blot analysis
[6] = molecular target: T2, MAP kinase p38 (Mus musculus); test: Inhibition of MAPK p38 in C57BL/6 mouse BMDM cells assessed as inhibition of LPS-induced phosphorylation at 50 uM up to 90 mins by Western blot analysis

COc1ccc(C(=O)N(Cc2ccccn2)C(C(=O)NC(C)(C)C)c2ccc(-c3ccc(OC)cc3)cc2)cc1 (configuration not stated)
inactive: inhibition [1] | inhibition [2] | inhibition [3] | inhibition (active/not active) [4] | inhibition of IkappaBalpha phosphorylation (active/not active) [5] | inhibition [6]

COc1ccc(-c2ccc(C(C(=O)NC(C)(C)C)N(C(=O)CCc3ccc(O)c(O)c3)C(C)(C)C)cc2)cc1 (configuration not stated)
inactive: inhibition [1] | inhibition [2] | inhibition [3] | inhibition (active/not active) [4] | inhibition of IkappaBalpha phosphorylation (active/not active) [5] | inhibition [6]
